Experimental data from patent publication US8618299B2, “Azinone-substituted azapolycycle MCH-1 antagonists, methods of making, and use thereof” (Albany Molecular Research, Inc., priority 2009, dated 2013).

Experiments:
[1] = target: human MCH-1 receptor (Homo sapiens (Human), UniProt Q99705); test: Binding assay for human melanin-concentrating hormone (MCH1) receptor; details: membranes from CHO-K1 cells expressing human MCH1 receptor, 1.4 nM [3H]-labeled radioligand, 60 min at 25° C., pH 7.4, Ki from Cheng Prusoff equation
Protocol: Binding Assay for Human Melanin-Concentrating Hormone (MCH1) Receptor
Evaluation of the affinity of compounds for the human MCH-1 receptor was accomplished using 4-(3,4,5-tritritiumbenzyloxy)-1-(1-(2-(pyrrolidin-1-yl)ethyl)-1H-indazol-5-yl)pyridin-2(1H)-one and membranes prepared from stable CHO-K1 cells expressing the human MCH1 receptor obtained from Euroscreen (Batch 1138). Cell membrane homogenates (8.92 μg protein) were incubated for 60 min at 25° C. with 1.4 nM of the [^3H]-labeled compound in the absence or presence of the test compound in 50 mM Tris-HCl buffer, pH 7.4. Nonspecific binding was determined in the presence of 50 μM 1-(5-(4-cyanophenyl)bicyclo[3.1.0]hexan-2-yl)-3-(4-fluoro-3-(trifluoromethyl)phenyl)-1-(3-(4-methylpiperazin-1-yl)propyl)urea. Following incubation, the samples were filtered rapidly under vacuum through Skatron 11731 filters, pre-soaked in 0.5% polyethylenimine, and washed with ice-cold 50 mM Tris-HCl buffer, pH 7.4, (wash setting 9,9,0) using a Skatron cell harvester. The filters were counted for radioactivity in a liquid scintillation counter (Tri-Carb 2100TR, Packard) using a scintillation cocktail (Ultima Gold MV, Perkin Elmer).
The results are expressed as a percent inhibition of the control radioligand specific binding. The IC50 value (concentration causing a half-maximal inhibition of control specific binding) and Hill coefficient (nH) were determined by non-linear regression analysis of the competition curve using Hill equation curve fitting. The inhibition constant (Ki) was calculated from the Cheng Prusoff equation: (Ki=IC50/(1+(L/KD)), where L=concentration of radioligand in the assay, and KD=affinity of the radioligand for the receptor.

human MCH-1 receptor, sequence (Q99705 whole entry): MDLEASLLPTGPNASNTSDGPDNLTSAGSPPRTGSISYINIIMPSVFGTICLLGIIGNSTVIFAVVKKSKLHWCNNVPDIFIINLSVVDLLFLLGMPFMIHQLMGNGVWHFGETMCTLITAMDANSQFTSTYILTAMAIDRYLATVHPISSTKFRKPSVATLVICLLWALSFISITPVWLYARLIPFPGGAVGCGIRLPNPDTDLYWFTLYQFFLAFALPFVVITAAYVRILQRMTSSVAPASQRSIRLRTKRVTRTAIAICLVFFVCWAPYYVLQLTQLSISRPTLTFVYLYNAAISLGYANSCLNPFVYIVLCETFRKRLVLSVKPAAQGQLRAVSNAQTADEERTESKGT

| SMILES | melting point | Ki [1] | Ki ([1]; Hydrochloride) |
| --- | --- | --- | --- |
| Cl.Cn1c2c(c3ccc(-n4ccc(OCc5ccc(Cl)cn5)cc4=O)cc31)CCN1CCCCC21 (stereo not drawn) [Example 8, 4-((5-Chloropyridin-2-yl)methoxy)-1-(12-methyl-1,2,3,4,6,7,12,12b-octahydroindolo[2,3-a]quinolizin-10-yl)pyridin-2(1H)-one Hydrochloride] | 204 to 208 °C | 20 nM |  |
| Cl.Cn1c2c(c3ccc(-n4ccc(OCc5ccc(F)cn5)cc4=O)cc31)CCN1CCCCC21 (stereo not drawn) [Example 7, 4-((5-Fluoropyridin-2-yl)methoxy)-1-(12-methyl-1,2,3,4,6,7,12,12b-octahydroindolo[2,3-a]quinolizin-10-yl)pyridin-2(1H)-one Hydrochloride] | 200 °C (dec.) | 45 nM |  |
| Cl.Cn1c2c(c3ccc(-n4ccc(-c5ccc(C(F)(F)F)cc5)cc4=O)nc31)C1CCCN1CC2 (stereo not drawn) [Example 49, 1-(7-Methyl-2,3,5,6,7,11c-hexahydro-1H-pyrido[3′,2′:4,5]pyrrolo[2,3-g]indolizin-9-yl)-4-(4-(trifluoromethyl)phenyl)pyridin-2(1H)-one Hydrochloride] | 190 to 200 °C | 15 nM |  |
| Cl.Cn1c2c(c3ccc(-n4ccc(-c5ccc(C(F)(F)F)nc5)cc4=O)cc31)CN1CCCCC1C2 (stereo not drawn) [Example 36, 1-(5-Methyl-5,6,6a,7,8,9,10,12-octahydroindolo[2,3-b]quinolizin-3-yl)-4-(6-(trifluoromethyl)pyridin-3-yl)pyridin-2(1H)-one Hydrochloride] | 245 to 248 °C | 7 nM |  |
| Cl.Cn1c2c(c3ccc(-n4ccc(-c5ccc(C(F)(F)F)nc5)cc4=O)cc31)C1CCCN1CC2 (stereo not drawn) [Example 14, 1-(7-Methyl-2,3,5,6,7,11c-hexahydro-1H-indolizino[7,8-b]indol-9-yl)-4-(6-(trifluoromethyl)pyridin-3-yl)pyridin-2(1H)-one Hydrochloride] | 235 to 240 °C | 153 nM |  |
| Cl.O=c1cc(OCc2ccccc2)ccn1-c1ccc2c3c([nH]c2c1)CC1CCCCN1C3 (stereo not drawn) [Example 29, 4-(Benzyloxy)-1-(5,6,6a,7,8,9,10,12-octahydroindolo[2,3-b]quinolizin-3-yl)-pyridin-2(1H)-one Hydrochloride] | 270 to 273 °C | 8.5 nM |  |
| Cl.Cn1c2c(c3ccc(-n4ccc(OCc5ccc(C(F)(F)F)nc5)cc4=O)cc31)CN1CCCC1C2 (stereo not drawn) [Example 32, 1-(10-Methyl-2,3,5,10,11,11a-hexahydro-1H-indolizino[7,6-b]indol-8-yl)-4-((6-(trifluoromethyl)pyridin-3-yl)methoxy)pyridin-2(1H)-one Hydrochloride] | 255 to 259 °C | 24 nM |  |
| Cl.Cn1c2c(c3ccc(-n4ccc(OCc5ccccc5)cc4=O)nc31)CN1CCCC1C2 (stereo not drawn) [Example 50, 4-(Benzyloxy)-1-(11-methyl-5,7,8,9,9a,10-hexahydro-11H-pyrido[3′,2′:4,5]pyrrolo[3,2-f]indolizin-2-yl)pyridin-2(1H)-one Hydrochloride] | 240 to 250 °C | 16 nM |  |
| Cl.Cn1c2c(c3ccc(-n4ccc(OCc5ccc(F)cc5F)cc4=O)nc31)CN1CCCC1C2 (stereo not drawn) [Example 55, 4-(2,4-Difluorobenzyloxy)-1-(11-methyl-5,7,8,9,9a,10-hexahydro-11H-pyrido[3′,2′:4,5]pyrrolo[3,2-f]indolizin-2-yl)pyridin-2(1H)-one Hydrochloride] | 140 to 150 °C | 31 nM |  |
| Cl.Cn1c2c(c3ccc(-n4ccc(-c5ccc(C(F)(F)F)cc5)cc4=O)nc31)CN1CCCC1C2 (stereo not drawn) [Example 52, 1-(11-Methyl-5,7,8,9,9a,10-hexahydro-11H-pyrido[3′,2′:4,5]pyrrolo[3,2-f]indolizin-2-yl)-4-(4-(trifluoromethyl)phenyl)pyridin-2(1H)-one Hydrochloride] | 300 to 305 °C | 17 nM |  |
| Cl.Cn1c2c(c3ccc(-n4ccc(OCc5ccccc5)cc4=O)cc31)C1CCCN1CC2 (stereo not drawn) [Example 17, 4-(Benzyloxy)-1-(7-methyl-2,3,5,6,7,11c-hexahydro-1H-indolizino[7,8-b]indol-9-yl)pyridin-2(1H)-one Hydrochloride] | 260 to 264 °C | 12 nM |  |
| Cl.O=c1cc(OCc2ccc(F)cc2F)ccn1-c1ccc2c3c([nH]c2c1)CCN1CCCC31 (stereo not drawn) [Example 28, 4-(2,4-difluorobenzyloxy)-1-(2,3,5,6,7,11c-hexahydro-1H-indolizino[7,8-b]indol-9-yl)pyridin-2(1H)-one Hydrochloride] | 210 to 220 °C | 12 nM |  |
| Cl.Cn1c2c(c3ccc(-n4ccc(OCc5ccccc5)cc4=O)cc31)CCN1CCCC21 (single isomer, unassigned; (-)) [Example 3, (−)4-(Benzyloxy)-1-(11-methyl-2,3,5,6,11,11b-hexahydro-1H-indolizino[8,7-b]indol-9-yl)pyridin-2(1H)-one Hydrochloride] | 224 to 228 °C |  | 17.3 nM |
| Cl.O=c1cc(OCc2ccccc2)ccn1-c1ccc2c3c([nH]c2c1)CC1CCCN1C3 (stereo not drawn) [Example 16, 4-(Benzyloxy)-1-(2,3,5,10,11,11a-hexahydro-1H-indolizino[7,6-b]indol-8-yl)pyridin-2(1H)-one Hydrochloride] | 270 to 273 °C | 7 nM |  |
| Cl.Cn1c2c(c3ccc(-n4ccc(OCc5ccccc5)cc4=O)nc31)C1CCCN1CC2 (stereo not drawn) [Example 44, 4-(Benzyloxy)-1-(7-methyl-2,3,5,6,7,11c-hexahydro-1H-pyrido[3′,2′:4,5]pyrrolo[2,3-g]indolizin-9-yl)pyridin-2(1H)-one Hydrochloride] | 130 to 140 °C | 12 nM |  |
| Cl.Cn1c2c(c3ccc(-n4ccc(OCc5ccccc5)cc4=O)cc31)CCN1CCCCC21 (stereo not drawn) [Example 5, 4-(Benzyloxy)-1-(12-methyl-1,2,3,4,6,7,12,12b-octahydroindolo[2,3-a]quinolizin-10-yl)pyridin-2(1H)-one Hydrochloride] | 210 to 213 °C | 31 nM |  |
| Cl.Cn1c2c(c3ccc(-n4ccc(-c5ccc(Cl)cn5)cc4=O)cc31)CCN1CCCCC21 (stereo not drawn) [Example 9, 4-(5-Chloropyridin-2-yl)-1-(12-methyl-1,2,3,4,6,7,12,12b-octahydroindolo[2,3-a]quinolizin-10-yl)pyridin-2(1H)-one Hydrochloride] | 210 to 213 °C | 1750 nM |  |
| Cl.O=c1cc(-c2ccc(C(F)(F)F)nc2)ccn1-c1ccc2c3c([nH]c2c1)CCN1CCCC31 (stereo not drawn) [Example 27, 1-(2,3,5,6,7,11c-Hexahydro-1H-indolizino[7,8-b]indol-9-yl)-4-(6-(trifluoromethyl)pyridin-3-yl)pyridin-2(1H)-one Hydrochloride] | 205 to 215 °C | 34 nM |  |
